Results published in patent US20240287079A1, “6-AMINOPYRAZOLOPYRIMIDINE COMPOUND AND PHARMACEUTICAL USE THEREOF” (Japan Tobacco Inc., priority 2021, published 2024).

Target: NLRP3 inflammasome (Homo sapiens (Human), UniProt Q96P20)
Assay: Evaluation of NLRP3 inflammasome inhibitory activity (inhibition of IL-1β production in LPS/Nigericin-stimulated THP1-Null cells)
Type: cell-based
Settings: IL-1β production in THP1-Null cells, PMA, LPS 1 μg/mL, Nigericin 7.5 μmol/L, AlphaLISA
Protocol: The NLRP3 inflammasome inhibitory activity of test compounds were evaluated on the basis of the inhibitory activity of the IL-1β production in THP1-Null cells (Product Number: thp-null, InvivoGen). […] The supernatant of the culture was removed, and thereto was added media for assay (25 μL/well) containing 1 μg/mL Lipopolysaccharides (Product Number: L2654, Sigma-Aldrich (registered trademark)). […] The supernatant of the culture was removed. […] A solution containing a test compound (20 μL/well) was added to test compound-setting wells. […] The supernatant of the culture was cryonically stored (set at −20° C.) until measurement of IL-1β.
The amount of IL-1β in the culture supernatant was quantitated with AlphaLISA(registered trademark) Human IL-1β Detection Kit (Product Number: AL220C, Perkin Elmer). Fluorescence intensity was measured with a microplate reader EnSpier (Model number: 2300-00J, Perkin Elmer) or EnSight(Model number: HH34000000, Perkin Elmer) according to procedure manuals attached thereto. Inhibition rates of the test compound-setting wells were calculated on the basis of 100% for the blank-setting wells and 0% for the control-setting wells.

Sequence of NLRP3 inflammasome (Q96P20 whole entry): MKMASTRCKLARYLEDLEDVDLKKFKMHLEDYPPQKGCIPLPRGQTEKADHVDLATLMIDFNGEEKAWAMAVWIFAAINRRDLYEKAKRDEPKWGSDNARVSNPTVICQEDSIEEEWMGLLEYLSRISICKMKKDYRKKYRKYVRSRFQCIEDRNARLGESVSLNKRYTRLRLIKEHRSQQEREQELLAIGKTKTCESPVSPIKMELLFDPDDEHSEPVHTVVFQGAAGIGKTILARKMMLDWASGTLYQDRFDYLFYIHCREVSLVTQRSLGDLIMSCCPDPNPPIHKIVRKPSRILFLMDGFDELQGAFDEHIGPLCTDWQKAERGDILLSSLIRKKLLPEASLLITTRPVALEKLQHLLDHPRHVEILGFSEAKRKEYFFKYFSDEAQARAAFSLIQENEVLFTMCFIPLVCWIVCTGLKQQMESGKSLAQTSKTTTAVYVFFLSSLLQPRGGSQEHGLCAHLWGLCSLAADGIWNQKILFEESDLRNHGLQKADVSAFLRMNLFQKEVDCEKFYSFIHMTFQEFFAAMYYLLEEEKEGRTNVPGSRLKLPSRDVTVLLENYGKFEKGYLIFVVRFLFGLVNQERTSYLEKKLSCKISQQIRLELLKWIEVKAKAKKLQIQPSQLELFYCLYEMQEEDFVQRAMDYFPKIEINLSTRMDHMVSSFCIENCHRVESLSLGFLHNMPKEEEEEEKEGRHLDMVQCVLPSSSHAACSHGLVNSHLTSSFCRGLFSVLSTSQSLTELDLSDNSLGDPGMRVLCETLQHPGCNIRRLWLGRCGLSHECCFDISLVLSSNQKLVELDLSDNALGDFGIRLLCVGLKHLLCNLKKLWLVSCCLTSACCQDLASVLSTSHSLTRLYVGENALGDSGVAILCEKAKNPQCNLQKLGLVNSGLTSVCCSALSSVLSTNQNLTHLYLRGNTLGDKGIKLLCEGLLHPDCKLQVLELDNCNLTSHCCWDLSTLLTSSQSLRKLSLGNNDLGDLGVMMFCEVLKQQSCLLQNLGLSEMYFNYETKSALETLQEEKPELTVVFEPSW

Compound	IC50 [nM]
Cc1ccccc1-n1cc2c(=O)[nH]c(N3CCOCC3C)nc2n1 (racemic) [Example 17]	2800
Cc1ccccc1-n1cc2c(=O)[nH]c(N3CCC(O)C3)nc2n1 (racemic) [Example 21]	1600
Cc1ccccc1-n1cc2c(=O)[nH]c(N3CCC(C#N)C3)nc2n1 (racemic) [Example 26]	1300
Cc1ccccc1-n1cc2c(=O)[nH]c(N3CCC(c4ccccc4)C3)nc2n1 (racemic) [Example 27]	1200
CCOC1CCN(c2nc3nn(-c4ccccc4C)cc3c(=O)[nH]2)C1 (racemic) [Example 28]	950
Cc1ccccc1-n1cc2c(=O)[nH]c(N3CCC(C)(O)C3)nc2n1 (racemic) [Example 37]	3200
Cc1ccccc1-n1cc2c(=O)[nH]c(N3CCC3Cc3ccccc3)nc2n1 (racemic) [Example 38]	2500
CCOC1CCN(c2nc3nn(-c4c(C)cccc4C)cc3c(=O)[nH]2)C1 (racemic) [Example 48]	820
COC1CCN(c2nc3nn(-c4c(C)cccc4C)cc3c(=O)[nH]2)C1 (racemic) [Example 54]	480
COC1CCN(c2nc3nn(-c4ccc(C)cc4C)cc3c(=O)[nH]2)C1 (racemic) [Example 56]	190
CCOC1CCN(c2nc3nn(-c4ccc(C)cc4C)cc3c(=O)[nH]2)C1 (racemic) [Example 57]	150
COC1CCN(c2nc3nn(-c4ccc(Br)cc4C)cc3c(=O)[nH]2)C1 (racemic) [Example 70]	39
COCC1CN(c2nc3nn(-c4ccc(Br)cc4C)cc3c(=O)[nH]2)CCO1 (racemic) [Example 72]	52
Cc1cc(Br)ccc1-n1cc2c(=O)[nH]c(N3CCC(C#N)C3)nc2n1 (racemic) [Example 90]	4.9
COC1CCN(c2nc3nn(-c4c(C)cc(C)cc4C)cc3c(=O)[nH]2)C1 (racemic) [Example 93]	9.1
Cc1cc(C)c(-n2cc3c(=O)[nH]c(N4CCCC(O)C4)nc3n2)c(C)c1 (racemic) [Example 107]	58
COC1CCCN(c2nc3nn(-c4c(C)cc(C)cc4C)cc3c(=O)[nH]2)C1 (racemic) [Example 108]	200
Cc1cc(C)c(-n2cc3c(=O)[nH]c(N4CCC(C)C4)nc3n2)c(C)c1 (racemic) [Example 109]	64
CNC(=O)C1CCN(c2nc3nn(-c4c(C)cc(C)cc4C)cc3c(=O)[nH]2)C1 (racemic) [Example 110]	80
CC(=O)NC1CCN(c2nc3nn(-c4c(C)cc(C)cc4C)cc3c(=O)[nH]2)C1 (racemic) [Example 111]	56
Cc1cc(C)c(-n2cc3c(=O)[nH]c(N4CCC(S(C)(=O)=O)C4)nc3n2)c(C)c1 (racemic) [Example 112]	55
Cc1cc(C)c(-n2cc3c(=O)[nH]c(N4CCC(N(C)C)C4)nc3n2)c(C)c1 (racemic) [Example 113]	63
Cc1cc(C)c(-n2cc3c(=O)[nH]c(N4CCCC(CO)C4)nc3n2)c(C)c1 (racemic) [Example 116]	79
CC(O)c1cc(Br)ccc1-n1cc2c(=O)[nH]c(N3CCOCC3)nc2n1 (racemic) [Example 130]	63
O=c1[nH]c(N2CCOCC2)nc2nn(-c3ccc(Br)cc3C(O)C3CC3)cc12 (racemic) [Example 150]	16

Compound	IC50 [nM]
Cc1cc(Br)ccc1-n1cc2c(=O)[nH]c(N3CC4CC3CO4)nc2n1 (racemic) [Example 159]	11
Cc1cc(Cl)cc(C(O)C2CC2)c1-n1cc2c(=O)[nH]c(N3CCOCC3)nc2n1 (racemic) [Example 162]	150
O=c1[nH]c(N2CCCC2CO)nc2nn(-c3ccc(C(F)(F)F)cc3Cl)cc12 (racemic) [Example 178]	33
Cc1cc(Cl)cc(C(C)C)c1-n1cc2c(=O)[nH]c(N3CCOCC3)nc2n1 (racemic) [Example 188]	89
Cc1cc(Br)cc(C)c1-n1cc2c(=O)[nH]c(N3CCC(C(C)(C)O)C3)nc2n1 (racemic) [Example 194]	24
Cc1cc(Br)cc(C)c1-n1cc2c(=O)[nH]c(N3CC4CC3C4)nc2n1 (racemic) [Example 217]	7.1
Cc1cc(Br)cc(C)c1-n1cc2c(=O)[nH]c(N3CC4CC3CN4S(C)(=O)=O)nc2n1 (racemic) [Example 219]	19
COCC(=O)N1CC2CC1CN2c1nc2nn(-c3c(C)cc(Br)cc3C)cc2c(=O)[nH]1 (racemic) [Example 220]	23
COCC(=O)N1CC2CC1CN2c1nc2nn(-c3c(C)cc(C4CC4)cc3C)cc2c(=O)[nH]1 (racemic) [Example 234]	24
Cc1cc(Br)cc(C)c1-n1cc2c(=O)[nH]c(NC3CCCN(C)C3)nc2n1 (racemic) [Example 245]	8
Cc1cc(Br)cc(C)c1-n1cc2c(=O)[nH]c(N3CC4COC(C4)C3)nc2n1 (racemic) [Example 279]	15
Cc1cc(Br)cc(C)c1-n1cc2c(=O)[nH]c(N3CCOC4CC43)nc2n1 (racemic) [Example 289]	10
Cc1cc(C(C)C(F)(F)F)cc(C)c1-n1cc2c(=O)[nH]c(N3CCOCC3)nc2n1 (racemic) [Example 294]	270
Cc1cc(Br)cc(C)c1-n1cc2c(=O)[nH]c(N3CCC(C#N)C3)nc2n1 (racemic) [Example 323]	6.4
Cc1cc(C2CC2)cc(C)c1-n1cc2c(=O)[nH]c(N3CCC(C#N)C3)nc2n1 (racemic) [Example 324]	6.2
CCC(C)n1nc(C)c(-n2cc3c(=O)[nH]c(N4CCCC4)nc3n2)c1C (racemic) [Example 347]	920
Cc1cc(Br)cc(C)c1-n1cc2c(=O)[nH]c(N3CCOCC3O)nc2n1 (racemic) [Example 363]	2.9
Cc1cc(Br)cc(C)c1-n1cc2c(=O)[nH]c(N3CCOC(O)C3)nc2n1 (racemic) [Example 364]	66
O=c1[nH]c(N2CCCC2)nc2nn(-c3ccccc3Cl)cc12 [Example 1]	340
O=c1[nH]c(N2CCCC2)nc2nn(-c3ccccc3)cc12 [Example 2]	8900
Cc1ccccc1-n1cc2c(=O)[nH]c(N3CCCC3)nc2n1 [Example 3, 6-(pyrrolidin-1-yl)-2-(o-tolyl)-2,5-dihydro-4H-pyrazolo[3,4-d]pyrimidin-4-one]	530
CN(C)c1nc2nn(-c3ccccc3Cl)cc2c(=O)[nH]1 [Example 4]	1700
Cc1ccccc1-n1cc2c(=O)[nH]c(N3CCOCC3)nc2n1 [Example 5]	1400
Cc1ccc(C(F)(F)F)cc1-n1cc2c(=O)[nH]c(N3CCCC3)nc2n1 [Example 6]	4000
COc1ccccc1CN(C)c1nc2nn(-c3ccccc3C)cc2c(=O)[nH]1 [Example 7]	22000

Compound	IC50 [nM]
O=c1[nH]c(N2CCCC2)nc2nn(-c3ccccc3C(F)(F)F)cc12 [Example 8]	590
O=c1[nH]c(N2CCCC2)nc2nn(-c3ccccc3OC(F)(F)F)cc12 [Example 9]	1200
O=c1[nH]c(N2CCCC2)nc2nn(-c3c(F)cccc3F)cc12 [Example 10]	2400
Cc1cccc(C)c1-n1cc2c(=O)[nH]c(N3CCCC3)nc2n1 [Example 11]	200
Cc1ccccc1-n1cc2c(=O)[nH]c(N3CCC(F)(F)C3)nc2n1 [Example 12]	380
COc1nc(N2CCCC2)nc2nn(-c3ccccc3C)cc12 [Example 13]	7700
Cc1ccccc1-n1cc2c(=O)n(C)c(N3CCCC3)nc2n1 [Example 14]	7200
Cc1ccccc1-n1cc2c(=O)[nH]c(N3CCCCC3)nc2n1 [Example 15]	1500
Cc1ccccc1-n1cc2c(=O)[nH]c(N3CCC3)nc2n1 [Example 16]	1300
CCCN(C)c1nc2nn(-c3ccccc3C)cc2c(=O)[nH]1 [Example 18]	12000
CCCNc1nc2nn(-c3ccccc3C)cc2c(=O)[nH]1 [Example 19]	1400
Cc1ccccc1-n1cc2c(=O)[nH]c(N(C)C)nc2n1 [Example 20]	6500
Cc1ccccc1-n1cc2c(=O)[nH]c(N3CCCCCC3)nc2n1 [Example 22]	8200
Cc1ccccc1-n1cc2c(=O)[nH]c(N(C)C(C)C)nc2n1 [Example 23]	1900
Cc1ccccc1-n1cc2c(=O)[nH]c(Nc3ccccc3)nc2n1 [Example 24]	2400
O=c1[nH]c(N2CCOCC2)nc2nn(-c3ccccc3C(F)(F)F)cc12 [Example 25]	950
O=c1[nH]c(N2CCCC2)nc2nn(-c3c(Cl)cccc3Cl)cc12 [Example 30, 2-(2,6-dichlorophenyl)-6-(pyrrolidin-1-yl)-2,5-dihydro-4H-pyrazole[3,4-d]pyrimidin-4-one]	1100
CC(C)c1ccccc1-n1cc2c(=O)[nH]c(N3CCCC3)nc2n1 [Example 31]	540
O=c1[nH]c(N2CCCC2)nc2nn(-c3ccc(F)cc3Cl)cc12 [Example 32]	240
COC1CN(c2nc3nn(-c4ccccc4C)cc3c(=O)[nH]2)C1 [Example 33]	2300
Cc1ccccc1-n1cc2c(=O)[nH]c(N3CC(F)(F)C3)nc2n1 [Example 34]	470
Cc1ccccc1-n1cc2c(=O)[nH]c(NCC(C)C)nc2n1 [Example 35]	1700
CNc1nc2nn(-c3ccccc3C)cc2c(=O)[nH]1 [Example 36]	1700

Same assay, conditions: IL-1β production in THP1-Null cells; test compound 24 μM

Compound	inhibition at 24 µM [%]
N#Cc1ccccc1-n1cc2c(=O)[nH]c(N3CCCC3)nc2n1 [Example 29]	2
